Source: US20080138834A1, “Cellular antagonists of GPCR physiology” (Institute Pasteur Korea, priority 2006, published 2008)
“Also recorded” adds a separate entry of the source. Read-outs that look alike come from different tables or passages of the source.

Assays:
HeLa cells = experiment: Housekeeping endocytosis assay (BODIPY-FL dextran internalization); format: cell-based
[1] = system: M1 muscarinic acetylcholine receptor (M1AR); experiment: Agonist-induced M1AR endocytosis in polarized MDCK cells; format: cell-based; conditions: 10 μM compound, vs untreated agonist stimulated control
Method: Sensitivity of GPCR internalization to kinase inhibitors acting on ETAR endocytosis. (a) Fully polarized MDCK cells expressing the M1AR were treated with 100 nM carbachol, DMSO, or compounds then fixed and stained with antibodies against the M1AR epitope tag (green) or the GP130 apical plasma marker (red). Cells were pretreated with compounds: 10 μM RO 31 8220, 10 μM Erbstatin A, 10 μM H-89, with 100 nM agonist, agonist alone or DMSO. Scale bar: 20 μm. (b) HEK293T cells expressing a human kappa Opioid receptor fusion to the green fluorescent protein were treated with 10 μM Gö 6976, 10 μM Erbstatin A, 10 μM H-89, 10 μM KT-5720 with 300 nM agonist, agonist alone or DMSO. Scale bar 20 μm. (c) Quantification of kappa Opioid receptor internalization (endosomes/cell) after compound treatment and agonist treatment.
If the involvement of second messenger kinases in agonist induced endocytosis of the ETAR was a generic feature of Gq coupled receptor activation, it may be expected that the kinase inhibitors affecting ETAR endocytosis may have effects on related receptors or related receptors in other cell lines. The kinase inhibitors that disrupted agonist induced ETAR endocytosis were assayed on agonist-induced endocytosis of the Gq/11 coupled M1 muscarinic acetylcholine receptor (M1AR). […]

rat thoracic aorta = experiment: Ex-vivo rat thoracic aorta constriction-relaxation model; conditions: 10 μM compound 30 min, then 40 nM endothelin; normalized to noradrenalin contraction
Method: As previously described, male rats (Sprague-Dawley) weighing 300 to 400 g were anesthetized with sodium pentobarbital (50 mg/kg i.p.), and thoracic aorta was removed, cleaned of fat and connective tissue placed in Krebs bicarbonate solution (118 mM NaCl; 4.7 mM KCl; 25 mM NaHCO3; 2.5 mM CaCl2; 1.2 mM KH2PO4; 1.2 mM MgSO4; 11 mM glucose) bubbled with 95% O2 and 5% CO2^39,40. The whole aorta was cut along a close spiral to produce a strip of 5 to 6 cm long. The strip was mounted on a Grass force displacement transducer at a tension of 2 grams and placed in a 25 ml chamber maintained at 34° C. Following mounting of aorta strip on transducer, noradrenalin was added to a final concentration of 5 μM and increase of tension-constriction was recorded for 20 min. Subsequently, the noradrenalin was washed with 16 chamber volumes (400 ml) until tension returned to 2 grams. […] Tension was recorded throughout the experiment. […]
To correlate the effect of kinase inhibitors that perturb ETAR intracellular pathway and cAMP production to a physiological relevance we have examined compound effect(s) on the ex-vivo rat thoracic aorta constriction-relaxation model (^39, 40). […] Contractile responses were assessed after aortal strips were treated with 10 μM Gö6976, 10 μM Erbstatin A or 10 μM H-89 for 30 minutes followed by treatment with Endothelin. […]

[2] = system: ETAR: GFP expressing cells; experiment: Single cell visual screening: red fluorescent dextran internalization in ETAR:GFP expressing cells; format: cell-based; conditions: 10 μM compound, 10 min red fluorescent dextran
Method: Single cell differential screening. […] (b) 10 μM Erbstatin A. (c) 10 μM H-89 (d) DMSO (e) 40 nM endothelin-1 alone. Confocal images are from a 1 μm Z section. […] Scale bar 5 μm.
The effect of the 3 kinase inhibitors affecting ETAR on receptor activation and housekeeping endocytosis were simultaneously imaged in ETAR: GFP expressing cells by internalization of red fluorescent dextran (FIG. 3). […] Thus, inhibition of protein kinase A and C second messenger activated kinases potently altered ETAR GPCR internalization but left housekeeping endocytosis unaffected.

[3] = system: human kappa Opioid receptor; format: cell-based
cAMP = cAMP production after ET-1 stimulation, indirect ELISA; format: cell-based; conditions: for effect on intra-cellular cAMP after ET-1 stimulation: 10 μM compound, 40 nM ET-1
Method: cAMP production requires sequential G-protein activation.
All fine chemicals were purchased from Sigma-Aldrich. Fluorophores and their reactive forms were purchased from Molecular Probes (Eugene, USA). DRAQ5 was from BioStatus (Shepshed, UK). 40 kDa BODIPY-F1-dextran was synthesized from amino dextran using standard protocols. […] Kinase and phosphatase inhibitors were purchased as 95-99% pure 10 mM stock solutions in dimethylsulfoxide or water (Biomol Hamburg, Germany). Stock solutions and formatted assay plates were stored at −20° C. cAMP was measured by indirect ELISA (R & D systems, MN USA) following the manufacturers protocol for cAMP acetylation, and a cAMP standard.
GPCRs can couple to multiple G-proteins and switching between G-proteins is generally mediated by protein phosphorylation^36-38. We assessed the importance of Gq coupling and PKC activity in the generation of intra-cellular cAMP through Gs following agonist stimulation.

[4] = 10 μM compound, fluorescent dextran uptake

## CN(C)CCCn1cc(C2=C(c3c[nH]c4ccccc34)C(=O)NC2=O)c2ccccc21 [GF 109203X]
HeLa cells
  effect on housekeeping endocytosis (integrated intensity per cell): reduced
  effect on housekeeping endocytosis (number of endosomes): reduced the number of endosomes; also recorded: blocked

## O=S(=O)(NCCNC/C=C/c1ccc(Br)cc1)c1cccc2cnccc12 [H-89]
HeLa cells; [4]
  effect on housekeeping endocytosis (number of endosomes): None of these compounds had a measurable effect
[1]
  agonist-induced M1AR endocytosis: unaffected
Rat thoracic aorta
  endothelin dependent aortal strip contraction vs endothelin alone: significantly lower constriction
[2]
  housekeeping endocytosis, single cell imaging: unaltered
[3]
  effect on kOPr internalization: moderate
cAMP
  effect on intra-cellular cAMP after ET-1 stimulation: markedly increased cAMP
cAMP; PKA inhibition with H-89, endothelin stimulated
  increase of cellular cAMP: two-fold

## CC(C)(C)c1cc(C=C(C#N)C#N)cc(C(C)(C)C)c1O [tyrphostin 9]
HeLa cells; 10 μM compound, data not shown
  effect on housekeeping endocytosis (integrated intensity per cell): reduced
HeLa cells; [4]
  effect on housekeeping endocytosis (number of endosomes): reduced the number of endosomes

## CC[C@H](C)[C@H](NC(=O)[C@H](CC(=O)O)NC(=O)[C@H](CC(C)C)NC(=O)[C@H](Cc1c[nH]cn1)NC(=O)[C@@H]1CSSC[C@H](N)C(=O)N[C@@H](CO)C(=O)N[C@H]2CSSC[C@H](NC(=O)[C@H](CCC(=O)O)NC(=O)[C@H](CCCCN)NC(=O)[C@H](CC(=O)O)NC(=O)[C@H](CCSC)NC(=O)[C@H](CC(C)C)NC(=O)[C@H](CO)NC(=O)[C@H](CO)NC2=O)C(=O)N[C@@H](C(C)C)C(=O)N[C@@H](Cc2ccc(O)cc2)C(=O)N[C@@H](Cc2ccccc2)C(=O)N1)C(=O)N[C@H](C(=O)N[C@@H](Cc1c[nH]c2ccccc12)C(=O)O)[C@@H](C)CC [endothelin-1]
cAMP; 40 nM ET-1, after 10 min
  intra-cellular cAMP after stimulation with ET-1 alone: robust increase in intra-cellular cAMP
cAMP; endothelin stimulation
  time of peak in cAMP production following stimulation: 20 min

## CC(C)(C)c1cc(/C=C(\C#N)C(N)=S)cc(C(C)(C)C)c1O [AG-879]
HeLa cells; 10 μM compound, data not shown
  effect on housekeeping endocytosis (integrated intensity per cell): reduced
HeLa cells; [4]
  effect on housekeeping endocytosis (number of endosomes): reduced the number of endosomes

## CCCCCCOC(=O)[C@]1(O)C[C@@H]2O[C@@]1(C)n1c3ccccc3c3c4c(c5c6ccccc6n2c5c31)C(=O)NC4 [KT5720]
[3]
  effect on kOPr internalization: pronounced stimulation of receptor uptake

## Cn1cc(C2=C(c3cn(CCCSC(=N)N)c4ccccc34)C(=O)NC2=O)c2ccccc21 [Ro 31-8220]
HeLa cells; [4]
  effect on housekeeping endocytosis (number of endosomes): None of these compounds had a measurable effect
HeLa cells; 10 μM compound, fluorescent dextran uptake, listed as Ro 31 8220
  effect on housekeeping endocytosis (number of endosomes): no significant effect
[1]
  agonist-induced M1AR endocytosis: unaffected
[2]
  housekeeping endocytosis, single cell imaging: unaffected
cAMP
  effect on intra-cellular cAMP after ET-1 stimulation: blocked cAMP production

## CN[C@@H]1C[C@H]2O[C@@](C)([C@@H]1OC)n1c3ccccc3c3c4c(c5c6ccccc6n2c5c31)C(=O)NC4 [staurosporine]
HeLa cells; 10 μM compound, data not shown
  effect on housekeeping endocytosis (integrated intensity per cell): reduced
HeLa cells; [4]
  effect on housekeeping endocytosis (number of endosomes): reduced the number of endosomes; also recorded: inhibited

## Cn1c2ccccc2c2c3c(c4c5ccccc5n(CCC#N)c4c21)CNC3=O [Gö 6976]
Rat thoracic aorta
  endothelin dependent aortal strip contraction vs endothelin alone: increased contraction

## Cc1cc(O)c2c(=O)c3c(O)cc(O)c4c5c(O)cc(O)c6c(=O)c7c(O)cc(C)c8c1c2c(c34)c(c78)c65 [hypericine]
HeLa cells
  housekeeping endocytosis compared to control: 0.2 fold

## CC(=O)c1c(O)c(C)c(O)c(Cc2c(O)c3c(c(C(=O)/C=C/c4ccccc4)c2O)OC(C)(C)C=C3)c1O [rottlerin]
HeLa cells
  effect on housekeeping endocytosis (number of endosomes): no effect

## CCCCCCCCCCCCCCCC(=O)OC(CC(=O)O)C[N+](C)(C)C.[Cl-] (stereo not drawn) [Palmitoyl DL carnitine chloride]
HeLa cells; [4]
  effect on housekeeping endocytosis (number of endosomes): no significant effect

## CC1CNCCN1S(=O)(=O)c1cccc2cnccc12 (stereo not shown) [H7]
HeLa cells; [4]
  effect on housekeeping endocytosis (number of endosomes): no significant effect
